Laboratory results: ChEMBL document CHEMBL1201862, “PubChem BioAssay data set” (2004)
The source made the active and inactive calls.

How the values were obtained:
[1] = biological target: T1, Apoptotic protease-activating factor 1 (Homo sapiens, UniProt O14727); type: functional
T1 sequence (O14727 whole entry): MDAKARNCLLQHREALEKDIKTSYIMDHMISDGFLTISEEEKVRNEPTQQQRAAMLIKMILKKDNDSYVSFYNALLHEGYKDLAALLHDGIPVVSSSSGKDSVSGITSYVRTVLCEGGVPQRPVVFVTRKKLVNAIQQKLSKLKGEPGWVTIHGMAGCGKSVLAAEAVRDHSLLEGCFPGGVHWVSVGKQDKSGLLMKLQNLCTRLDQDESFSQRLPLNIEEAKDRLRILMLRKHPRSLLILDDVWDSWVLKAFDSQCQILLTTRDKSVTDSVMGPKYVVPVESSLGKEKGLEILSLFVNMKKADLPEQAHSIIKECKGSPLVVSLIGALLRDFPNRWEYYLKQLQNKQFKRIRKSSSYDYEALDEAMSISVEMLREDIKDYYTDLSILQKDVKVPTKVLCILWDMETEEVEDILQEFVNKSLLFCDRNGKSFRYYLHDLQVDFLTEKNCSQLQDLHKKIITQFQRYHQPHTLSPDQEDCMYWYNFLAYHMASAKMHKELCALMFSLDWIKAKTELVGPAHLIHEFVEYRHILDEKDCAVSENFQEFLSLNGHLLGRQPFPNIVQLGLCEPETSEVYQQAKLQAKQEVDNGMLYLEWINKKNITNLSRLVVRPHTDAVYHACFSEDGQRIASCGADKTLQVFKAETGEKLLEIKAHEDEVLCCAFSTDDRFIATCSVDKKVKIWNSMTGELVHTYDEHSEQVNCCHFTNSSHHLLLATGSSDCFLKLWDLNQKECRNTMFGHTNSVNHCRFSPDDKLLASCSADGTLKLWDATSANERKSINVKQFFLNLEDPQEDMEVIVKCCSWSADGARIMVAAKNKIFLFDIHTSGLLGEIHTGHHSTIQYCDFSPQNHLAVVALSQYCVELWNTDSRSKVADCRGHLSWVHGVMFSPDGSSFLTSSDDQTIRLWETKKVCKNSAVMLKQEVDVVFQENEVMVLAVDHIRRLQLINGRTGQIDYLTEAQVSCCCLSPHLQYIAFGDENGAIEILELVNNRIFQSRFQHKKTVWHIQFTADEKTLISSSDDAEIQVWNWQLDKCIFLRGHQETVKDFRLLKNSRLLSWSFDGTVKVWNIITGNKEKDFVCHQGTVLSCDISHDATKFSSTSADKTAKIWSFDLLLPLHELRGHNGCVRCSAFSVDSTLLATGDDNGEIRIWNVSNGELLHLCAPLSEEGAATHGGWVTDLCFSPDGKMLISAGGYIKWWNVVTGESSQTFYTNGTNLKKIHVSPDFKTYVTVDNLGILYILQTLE

Beta-lactamase [2] = biological target: Beta-lactamase (Pseudomonas aeruginosa, UniProt Q79MP6);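 further: biochemical dose-response test of metallo-beta-lactamase enzyme inhibition, read out by epi-absorbance; purified recombinant IMP-1 metallo-beta-lactamase with nitrocefin as substrate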
Sequence of Beta-lactamase (Pseudomonas aeruginosa, UniProt Q79MP6) (Q79MP6 whole entry, the tested form may be a part): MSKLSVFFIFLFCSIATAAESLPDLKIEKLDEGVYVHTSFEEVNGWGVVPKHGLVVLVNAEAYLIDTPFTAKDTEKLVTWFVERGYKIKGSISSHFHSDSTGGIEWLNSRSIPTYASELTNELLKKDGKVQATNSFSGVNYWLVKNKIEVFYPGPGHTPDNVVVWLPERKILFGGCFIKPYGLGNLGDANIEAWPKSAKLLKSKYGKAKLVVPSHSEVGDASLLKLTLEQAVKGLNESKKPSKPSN

[3] = biological target: T2, RNA-binding protein pos-1 (Caenorhabditis elegans, UniProt G5EF15); assay: inhibitors of POS-1/mex-3 RNA binding, dose response, biochemical, fluorescence polarization (AID 1964);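 further: purified POS-1 fused to maltose binding protein made in E. coli; potency of compounds blocking POS-1 binding to fluorescent RNA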
T2 sequence (G5EF15 whole entry): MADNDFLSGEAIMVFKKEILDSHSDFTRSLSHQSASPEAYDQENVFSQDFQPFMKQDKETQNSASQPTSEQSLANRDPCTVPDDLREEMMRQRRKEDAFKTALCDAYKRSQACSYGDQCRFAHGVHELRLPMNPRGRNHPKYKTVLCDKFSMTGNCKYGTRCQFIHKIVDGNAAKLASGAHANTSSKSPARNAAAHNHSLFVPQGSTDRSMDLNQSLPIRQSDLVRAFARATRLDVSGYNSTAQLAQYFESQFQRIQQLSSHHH

Beta-lactamase [4] = biological target: Beta-lactamase (Salmonella choleraesuis (strain SC-B67), UniProt Q5J463)
Sequence of Beta-lactamase (Salmonella choleraesuis (strain SC-B67), UniProt Q5J463) (Q5J463 whole entry): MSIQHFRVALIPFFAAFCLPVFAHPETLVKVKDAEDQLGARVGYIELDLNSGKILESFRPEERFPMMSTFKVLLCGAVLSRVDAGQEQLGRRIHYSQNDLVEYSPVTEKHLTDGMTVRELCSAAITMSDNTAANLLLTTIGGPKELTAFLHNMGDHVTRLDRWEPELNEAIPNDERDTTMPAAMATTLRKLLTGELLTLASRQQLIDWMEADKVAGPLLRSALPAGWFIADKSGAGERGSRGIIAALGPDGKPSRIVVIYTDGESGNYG

[5] = biological target: T3, Zinc finger protein mex-5 (Caenorhabditis elegans, UniProt Q9XUB2); assay: MEX-5/TCR-2 RNA interaction inhibitors, dose response, biochemical, C. elegans, fluorescence polarization (AID 1960)
T3 sequence (Q9XUB2 whole entry): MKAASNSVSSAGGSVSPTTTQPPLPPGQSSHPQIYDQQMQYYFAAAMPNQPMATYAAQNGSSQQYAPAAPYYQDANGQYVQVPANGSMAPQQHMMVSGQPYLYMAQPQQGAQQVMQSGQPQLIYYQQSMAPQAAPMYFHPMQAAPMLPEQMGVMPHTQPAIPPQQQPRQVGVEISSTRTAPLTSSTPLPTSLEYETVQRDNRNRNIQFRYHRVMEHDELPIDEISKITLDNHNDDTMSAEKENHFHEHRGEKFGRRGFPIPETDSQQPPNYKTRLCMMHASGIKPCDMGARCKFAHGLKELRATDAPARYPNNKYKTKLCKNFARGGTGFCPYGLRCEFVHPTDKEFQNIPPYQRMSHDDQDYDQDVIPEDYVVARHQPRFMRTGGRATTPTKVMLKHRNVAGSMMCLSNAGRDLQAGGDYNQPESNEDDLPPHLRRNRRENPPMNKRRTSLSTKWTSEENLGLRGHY

[6] = biological target: T4, Sentrin-specific protease 8 (Homo sapiens, UniProt Q96LD8); type: functional
T4 sequence (Q96LD8 whole entry): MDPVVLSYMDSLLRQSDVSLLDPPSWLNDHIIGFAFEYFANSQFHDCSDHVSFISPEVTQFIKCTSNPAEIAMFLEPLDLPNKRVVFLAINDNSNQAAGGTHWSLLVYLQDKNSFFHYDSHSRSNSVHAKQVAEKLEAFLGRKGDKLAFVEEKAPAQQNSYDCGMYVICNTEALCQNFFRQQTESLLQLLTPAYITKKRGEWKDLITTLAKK

[7] = biological target: T4, Sentrin-specific protease 8; type: functional; remark: listed apart in the source
[8] = biological target: T5, Low molecular weight phosphotyrosine protein phosphatase (Homo sapiens, UniProt P24666); type: functional; conditions: read-out: IC50_Mean;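 further: Dose-response confirmation assay measuring inhibition of LMPTP enzyme activity by fluorescence intensity read-out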
T5 sequence (P24666 whole entry): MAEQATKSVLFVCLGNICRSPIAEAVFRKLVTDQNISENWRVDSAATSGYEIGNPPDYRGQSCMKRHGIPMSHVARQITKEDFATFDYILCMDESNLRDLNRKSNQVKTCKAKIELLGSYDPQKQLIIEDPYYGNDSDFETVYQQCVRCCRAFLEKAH

[9] = biological target: Induced myeloid leukemia cell differentiation protein Mcl-1 (Homo sapiens, UniProt Q07820); type: functional
[10] = biological target: T6, Corticotropin-releasing factor receptor 2/Corticotropin-releasing factor-binding protein (Homo sapiens, UniProt P24387+Q13324); assay: activators of CRF receptor 2 with binding protein – uHTS hits, confirmation (AID 602473); type: functional; conditions: read-out: EC50_Mean
T6 sequence (Q13324 whole entry): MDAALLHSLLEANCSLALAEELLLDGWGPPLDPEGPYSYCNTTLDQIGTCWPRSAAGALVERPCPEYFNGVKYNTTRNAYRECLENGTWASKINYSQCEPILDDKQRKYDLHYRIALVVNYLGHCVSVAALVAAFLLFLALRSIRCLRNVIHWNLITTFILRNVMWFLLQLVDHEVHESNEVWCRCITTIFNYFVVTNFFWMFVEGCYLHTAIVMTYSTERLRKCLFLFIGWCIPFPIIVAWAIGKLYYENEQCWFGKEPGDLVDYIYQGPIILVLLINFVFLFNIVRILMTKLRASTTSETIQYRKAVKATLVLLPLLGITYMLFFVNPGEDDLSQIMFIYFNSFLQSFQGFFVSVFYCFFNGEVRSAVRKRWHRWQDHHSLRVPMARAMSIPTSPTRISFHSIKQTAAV
T6 sequence (P24387 whole entry): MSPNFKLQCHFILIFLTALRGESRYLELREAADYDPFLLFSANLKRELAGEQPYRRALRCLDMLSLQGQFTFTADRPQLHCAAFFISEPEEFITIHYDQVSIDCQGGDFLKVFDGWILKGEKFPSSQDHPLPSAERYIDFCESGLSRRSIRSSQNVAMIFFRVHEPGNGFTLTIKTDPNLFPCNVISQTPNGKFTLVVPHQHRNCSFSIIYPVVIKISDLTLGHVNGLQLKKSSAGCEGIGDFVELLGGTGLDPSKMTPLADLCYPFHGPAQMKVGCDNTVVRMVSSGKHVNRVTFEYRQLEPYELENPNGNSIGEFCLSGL

[11] = biological target: T6, Corticotropin-releasing factor receptor 2/Corticotropin-releasing factor-binding protein; assay: Dose Response confirmation of uHTS hits for small molecule antagonists of the CRF-binding protein and CRF-R2 receptor complex.; type: functional; conditions: read-out: IC50_Mean
[12] = CRF-BP/CRF-R2 complex antagonists, dose response, cell-based, uHTS hits, 384-well (AID 651639); type: functional, Homo sapiens; conditions: read-out: IC50_Mean
[13] = Luminescence Cell-Based Dose Retest to Confirm Inhibitors of Cancer Stem Cells. [Related pubchem assays (depositor defined):AID2717, AID2721]; type: functional; conditions: Homo sapiens
[14] = biological target: 26S proteasome non-ATPase regulatory subunit 14 (Homo sapiens, UniProt O00487); assay: inhibition of proteasome subunit RPN11 – biochemical, fluorescence polarization, uHTS hits, confirmation (AID 602368); type: functional
[15] = biological target: T7, Voltage-gated N-type calcium channel alpha-1B subunit/Amyloid beta A4 precursor protein-binding family A member 1 (Homo sapiens, UniProt Q00975+Q02410); type: protein assay
T7 sequence (Q00975 whole entry): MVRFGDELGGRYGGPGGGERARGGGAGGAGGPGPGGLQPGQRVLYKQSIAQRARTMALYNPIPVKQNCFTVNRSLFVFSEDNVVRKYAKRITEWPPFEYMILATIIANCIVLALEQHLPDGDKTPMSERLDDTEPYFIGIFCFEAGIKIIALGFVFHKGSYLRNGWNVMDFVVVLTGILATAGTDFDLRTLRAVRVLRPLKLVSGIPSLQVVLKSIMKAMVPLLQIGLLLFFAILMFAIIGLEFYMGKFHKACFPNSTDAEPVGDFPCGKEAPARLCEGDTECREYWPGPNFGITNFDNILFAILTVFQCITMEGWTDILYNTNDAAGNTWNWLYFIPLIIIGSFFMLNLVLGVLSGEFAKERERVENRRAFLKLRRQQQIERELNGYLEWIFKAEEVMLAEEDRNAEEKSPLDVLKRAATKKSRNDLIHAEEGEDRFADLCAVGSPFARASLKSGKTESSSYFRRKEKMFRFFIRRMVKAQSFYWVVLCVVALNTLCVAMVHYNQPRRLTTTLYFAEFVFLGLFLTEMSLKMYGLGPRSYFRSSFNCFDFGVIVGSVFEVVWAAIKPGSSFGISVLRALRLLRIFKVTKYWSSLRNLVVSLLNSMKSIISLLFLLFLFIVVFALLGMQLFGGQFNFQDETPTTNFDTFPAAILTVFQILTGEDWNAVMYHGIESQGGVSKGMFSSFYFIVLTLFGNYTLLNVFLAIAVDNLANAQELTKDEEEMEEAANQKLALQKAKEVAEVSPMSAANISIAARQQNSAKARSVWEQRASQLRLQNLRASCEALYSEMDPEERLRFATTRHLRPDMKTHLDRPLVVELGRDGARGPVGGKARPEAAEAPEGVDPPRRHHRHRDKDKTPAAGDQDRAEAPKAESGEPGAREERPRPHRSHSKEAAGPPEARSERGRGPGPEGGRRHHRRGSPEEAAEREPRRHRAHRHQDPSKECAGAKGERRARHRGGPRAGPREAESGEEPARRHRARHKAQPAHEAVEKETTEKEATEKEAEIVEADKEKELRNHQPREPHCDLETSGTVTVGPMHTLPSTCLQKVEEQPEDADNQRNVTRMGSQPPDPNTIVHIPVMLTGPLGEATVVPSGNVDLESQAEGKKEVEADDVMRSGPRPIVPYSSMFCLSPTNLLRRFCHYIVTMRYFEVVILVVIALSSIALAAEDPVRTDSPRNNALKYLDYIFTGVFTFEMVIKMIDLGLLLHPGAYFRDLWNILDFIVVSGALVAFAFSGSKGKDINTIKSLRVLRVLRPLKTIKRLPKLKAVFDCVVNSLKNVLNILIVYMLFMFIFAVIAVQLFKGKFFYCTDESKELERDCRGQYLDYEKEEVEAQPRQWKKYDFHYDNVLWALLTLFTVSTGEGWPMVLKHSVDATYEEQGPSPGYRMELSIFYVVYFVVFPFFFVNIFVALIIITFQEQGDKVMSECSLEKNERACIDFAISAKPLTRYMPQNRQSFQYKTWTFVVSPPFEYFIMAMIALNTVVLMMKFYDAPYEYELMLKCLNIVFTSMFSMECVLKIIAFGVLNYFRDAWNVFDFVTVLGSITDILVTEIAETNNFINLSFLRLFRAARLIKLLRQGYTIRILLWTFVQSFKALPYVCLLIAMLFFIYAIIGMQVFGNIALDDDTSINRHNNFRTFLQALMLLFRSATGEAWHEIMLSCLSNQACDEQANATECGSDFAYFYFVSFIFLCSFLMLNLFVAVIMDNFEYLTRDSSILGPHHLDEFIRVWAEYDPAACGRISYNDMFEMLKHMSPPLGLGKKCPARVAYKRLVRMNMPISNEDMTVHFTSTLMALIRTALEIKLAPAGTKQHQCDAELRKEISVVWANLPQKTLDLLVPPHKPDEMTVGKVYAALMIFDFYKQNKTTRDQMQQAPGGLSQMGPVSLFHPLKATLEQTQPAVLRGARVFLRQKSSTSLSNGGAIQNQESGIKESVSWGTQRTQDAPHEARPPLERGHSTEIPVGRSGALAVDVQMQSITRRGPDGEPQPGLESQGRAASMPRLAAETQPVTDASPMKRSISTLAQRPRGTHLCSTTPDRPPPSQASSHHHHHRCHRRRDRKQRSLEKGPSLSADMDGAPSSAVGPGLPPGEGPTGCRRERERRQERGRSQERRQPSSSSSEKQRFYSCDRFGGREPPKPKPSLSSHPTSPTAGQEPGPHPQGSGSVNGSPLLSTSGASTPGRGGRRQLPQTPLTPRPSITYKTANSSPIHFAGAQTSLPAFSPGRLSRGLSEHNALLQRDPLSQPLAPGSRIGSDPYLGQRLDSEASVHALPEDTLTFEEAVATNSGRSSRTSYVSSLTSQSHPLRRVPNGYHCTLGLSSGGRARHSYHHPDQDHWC
T7 sequence (Q02410 whole entry): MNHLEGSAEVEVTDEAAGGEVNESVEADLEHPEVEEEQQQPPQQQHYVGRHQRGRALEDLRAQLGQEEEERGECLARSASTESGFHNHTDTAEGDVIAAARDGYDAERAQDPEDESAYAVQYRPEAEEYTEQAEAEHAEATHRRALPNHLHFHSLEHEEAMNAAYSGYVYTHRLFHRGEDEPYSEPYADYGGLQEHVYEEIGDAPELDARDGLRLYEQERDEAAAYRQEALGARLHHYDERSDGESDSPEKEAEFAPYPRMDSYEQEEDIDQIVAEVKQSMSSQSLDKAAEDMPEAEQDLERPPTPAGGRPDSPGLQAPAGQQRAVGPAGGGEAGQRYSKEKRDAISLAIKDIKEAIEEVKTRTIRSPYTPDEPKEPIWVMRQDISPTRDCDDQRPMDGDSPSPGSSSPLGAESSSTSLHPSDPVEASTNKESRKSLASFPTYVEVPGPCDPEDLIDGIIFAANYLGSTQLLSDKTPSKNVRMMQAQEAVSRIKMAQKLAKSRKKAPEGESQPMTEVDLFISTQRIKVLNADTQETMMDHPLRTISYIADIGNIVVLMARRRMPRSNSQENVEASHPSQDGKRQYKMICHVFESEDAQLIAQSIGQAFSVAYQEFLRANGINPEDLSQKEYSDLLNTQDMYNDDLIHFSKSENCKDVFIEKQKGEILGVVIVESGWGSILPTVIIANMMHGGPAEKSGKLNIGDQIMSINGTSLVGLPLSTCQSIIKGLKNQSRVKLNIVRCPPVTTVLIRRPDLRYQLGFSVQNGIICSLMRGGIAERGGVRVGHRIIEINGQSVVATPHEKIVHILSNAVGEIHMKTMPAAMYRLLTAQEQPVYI

Prothrombin = Prothrombin (Bos taurus, UniProt P00735); assay: thrombin inhibition, dose response, biochemical, fluorescence polarization, uHTS hits (AID 602369); type: functional
[16] = biological target: 72 kDa type IV collagenase (Homo sapiens, UniProt P08253); assay: Dose Response validation of uHTS RPN11 inhibitor hits using a MMP-2 Fluorescence assay.; type: functional
[17] = biological target: T7, Voltage-gated N-type calcium channel alpha-1B subunit/Amyloid beta A4 precursor protein-binding family A member 1; type: protein assay; remark: listed apart in the source
[18] = biological target: Arf-GAP with SH3 domain, ANK repeat and PH domain-containing protein 1 (Homo sapiens, UniProt Q9ULH1); type: functional;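 further: biochemical fluorescence polarization dose–response screen measuring inhibition of ASAP1; ASAP1 GAP domain stimulating GTP hydrolysis by truncated human ARF1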
Sequence of Arf-GAP with SH3 domain, ANK repeat and PH domain-containing protein 1 (Q9ULH1 whole entry, the tested form may be a part): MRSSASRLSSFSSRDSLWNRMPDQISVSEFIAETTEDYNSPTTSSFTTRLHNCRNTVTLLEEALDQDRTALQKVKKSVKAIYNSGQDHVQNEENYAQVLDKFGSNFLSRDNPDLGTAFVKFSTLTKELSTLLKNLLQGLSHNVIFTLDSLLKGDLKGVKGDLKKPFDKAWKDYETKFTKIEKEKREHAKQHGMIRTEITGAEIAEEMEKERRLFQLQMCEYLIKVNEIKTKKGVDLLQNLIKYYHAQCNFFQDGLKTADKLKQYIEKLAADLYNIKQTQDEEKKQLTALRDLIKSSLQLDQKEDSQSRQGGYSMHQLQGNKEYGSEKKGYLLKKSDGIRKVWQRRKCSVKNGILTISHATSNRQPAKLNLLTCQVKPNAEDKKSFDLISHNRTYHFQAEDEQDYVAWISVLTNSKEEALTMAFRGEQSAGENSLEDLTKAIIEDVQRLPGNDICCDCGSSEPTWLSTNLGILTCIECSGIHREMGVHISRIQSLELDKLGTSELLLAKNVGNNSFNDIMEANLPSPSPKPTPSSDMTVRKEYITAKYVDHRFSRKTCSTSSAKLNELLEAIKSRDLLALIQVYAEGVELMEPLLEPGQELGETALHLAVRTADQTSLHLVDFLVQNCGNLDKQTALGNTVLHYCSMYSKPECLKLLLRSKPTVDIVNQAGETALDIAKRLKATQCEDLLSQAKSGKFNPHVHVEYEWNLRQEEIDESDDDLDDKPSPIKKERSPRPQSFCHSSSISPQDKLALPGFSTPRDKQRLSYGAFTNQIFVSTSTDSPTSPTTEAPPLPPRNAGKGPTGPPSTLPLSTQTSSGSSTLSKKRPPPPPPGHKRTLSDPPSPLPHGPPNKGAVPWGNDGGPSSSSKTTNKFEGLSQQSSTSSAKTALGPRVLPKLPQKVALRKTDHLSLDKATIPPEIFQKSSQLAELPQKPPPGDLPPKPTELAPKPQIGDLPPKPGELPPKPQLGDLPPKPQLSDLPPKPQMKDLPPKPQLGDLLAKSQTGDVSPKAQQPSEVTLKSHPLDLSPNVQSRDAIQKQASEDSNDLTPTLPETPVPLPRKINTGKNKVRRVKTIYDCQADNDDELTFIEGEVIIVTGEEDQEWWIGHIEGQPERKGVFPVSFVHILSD

[19] = biological target: T8, Carboxy-terminal domain RNA polymerase II polypeptide A small phosphatase 1 (Homo sapiens, UniProt Q9GZU7); assay: inhibitors of CTDSP1, concentration-response testing, biochemical assay, absorbance-based, actives from ultra-high-throughput screening (AID 540297); type: functional
T8 sequence (Q9GZU7 whole entry): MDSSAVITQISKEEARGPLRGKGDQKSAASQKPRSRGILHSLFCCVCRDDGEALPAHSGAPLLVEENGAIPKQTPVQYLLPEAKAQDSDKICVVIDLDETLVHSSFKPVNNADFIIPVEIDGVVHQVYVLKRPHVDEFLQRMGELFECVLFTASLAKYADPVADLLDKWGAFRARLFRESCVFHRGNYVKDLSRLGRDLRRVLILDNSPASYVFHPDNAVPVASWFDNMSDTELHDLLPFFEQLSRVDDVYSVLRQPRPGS

[20] = HeLa cell cytotoxicity, dose response, cytotoxicity control for MgcRacGAP inhibitor project (AID 624300); type: functional
[21] = biological target: T9, Rac GTPase-activating protein 1 (Homo sapiens, UniProt Q9H0H5); assay: MgcRacGAP GTPase-activating activity inhibitors, confirmation, biochemical, ADP Hunter fluorescence, primary and confirmatory (AID 624330); type: functional
T9 sequence (Q9H0H5 whole entry): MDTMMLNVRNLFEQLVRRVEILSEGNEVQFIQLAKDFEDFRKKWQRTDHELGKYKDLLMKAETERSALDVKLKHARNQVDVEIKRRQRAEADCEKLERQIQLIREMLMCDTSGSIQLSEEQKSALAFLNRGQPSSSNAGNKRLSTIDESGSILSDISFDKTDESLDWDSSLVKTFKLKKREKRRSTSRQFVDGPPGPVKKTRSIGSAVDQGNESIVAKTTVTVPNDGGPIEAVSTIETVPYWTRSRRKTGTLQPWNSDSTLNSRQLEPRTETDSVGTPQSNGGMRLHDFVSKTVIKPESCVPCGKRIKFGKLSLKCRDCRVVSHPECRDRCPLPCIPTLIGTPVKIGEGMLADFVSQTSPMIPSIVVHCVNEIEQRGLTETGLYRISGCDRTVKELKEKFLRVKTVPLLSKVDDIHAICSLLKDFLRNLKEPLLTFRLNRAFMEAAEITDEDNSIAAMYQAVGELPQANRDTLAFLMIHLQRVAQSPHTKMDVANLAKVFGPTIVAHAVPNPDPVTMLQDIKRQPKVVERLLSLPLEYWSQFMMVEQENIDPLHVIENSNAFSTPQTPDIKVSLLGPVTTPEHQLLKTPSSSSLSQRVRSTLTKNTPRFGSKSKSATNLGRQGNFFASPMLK
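Wherever AC50 is given: cells exposed to compound for roughly 70 hours or longer before luminescence read.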

O=Cc1ccc2cccc3c2c1NC(C(F)(F)F)=N3
IC50 [1]: 9.2 µM (active)
IC50 (Beta-lactamase [2]): 32.6 µM (inactive)
EC50 [3]: 27.6 µM (active)
IC50 (Beta-lactamase [4]): 27.9 µM (inactive)
EC50 [5]: 24.8 µM (active)

Nc1ccc(Cc2ccc(N)c(O)c2)cc1O
IC50 [6]: 27 µM (active)
IC50 [7]: > 100 µM (inactive)
IC50 [8]: 26.7 µM (inactive)
IC50 [9]: > 54 µM (active)

N#Cc1c(O)nc(SCc2cccc(Cl)c2)nc1-c1ccccc1
EC50 [10]: > 53 µM (inactive)
IC50 [11]: < 0.368 µM (active)
IC50 [12]: > 20 µM (inactive)
AC50 [13]: 4.86 µM (active)

O=c1c([N+](=O)[O-])c(NC2CCCCC2)c2ccccc2n1-c1ccccc1
EC50 [10]: > 53 µM (inactive)
IC50 [11]: 4.33 µM (active)
IC50 [12]: > 20 µM (inactive)

O=P(O)(O)c1cc(-c2ccccc2)oc1-c1ccccc1
IC50 (Beta-lactamase [2]): 22.5 µM (inactive)
IC50 (Beta-lactamase [4]): > 59.6 µM (inactive)

COC(=O)c1ccc(NC(=O)c2ccc(NC(=O)c3ccco3)cc2)cc1
IC50 [14]: 23 µM (active)
IC50 [15]: 5.25 µM (active)
IC50 (Prothrombin): 73 µM (active)
IC50 [16]: > 100 µM (inactive)
IC50 [17]: > 50 µM (inactive)
IC50 [18]: 25.8 µM (inactive)

Cc1ccc(C(=O)Nc2cccc(NC(=O)c3ccc(C)c([N+](=O)[O-])c3)n2)cc1[N+](=O)[O-]
IC50 [19]: 4.55 µM (active)
IC50 [18]: 41.9 µM (inactive)

C=CCc1c(C)nc(-c2ccccc2)nc1Nc1ccc(O)cc1
CC50 [20]: 100 µM (active)
IC50 [21]: 38.1 µM (active)
